Results from PubChem BioAssay (NCI).
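96-well plates; 48 h exposure; 5 concentrations. Endpoints by linear interpolation between flanking doses. Not reached: highest tested concentration assigned. The concentration for full growth arrest is given as TGI.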

How the values were obtained:
Test in all cases: NCI tumour cell line growth inhibition, 48 h
[1] = system: M19-MEL melanoma
[2] = system: OVCAR-3 ovarian
[3] = system: A549 NSCLC
[4] = system: SNB-75 CNS
[5] = system: OVCAR-8 ovarian
[6] = system: HOP-92 NSCLC
[7] = system: SF-539 CNS
[8] = system: NCI-H460 lung
[9] = system: KM12 colon
[10] = system: LXFL 529 NSCLC
[11] = system: SNB-19 CNS
[12] = system: HOP-18 NSCLC
[13] = system: SK-OV-3 ovarian
[14] = system: LOX IMVI melanoma
[15] = system: NCI-H226 lung
[16] = system: OVCAR-5 ovarian
[17] = system: SK-MEL-28 melanoma
[18] = system: DLD-1 colon
[19] = system: SR leukemia
[20] = system: K-562 leukemia
[21] = system: TK-10 renal
[22] = system: RPMI-8226 leukemia
[23] = system: UACC-62 melanoma
[24] = system: M14 melanoma
[25] = system: SF-295 CNS
[26] = system: HCC-2998 colon
[27] = system: MOLT-4 leukemia
[28] = system: RXF 393 renal
[29] = system: HT29 colon
[30] = system: EKVX NSCLC
[31] = system: DMS 273 small cell lung
[32] = system: SN12C renal
[33] = system: UO-31 renal
[34] = system: OVCAR-4 ovarian
[35] = system: COLO 205 colon
[36] = system: DMS 114 small cell lung
[37] = system: NCI-H522 lung
[38] = system: SK-MEL-5 melanoma
[39] = system: HCT-116 colon
[40] = system: NCI-H23 lung
[41] = system: U251 CNS
[42] = system: SK-MEL-2 melanoma
[43] = system: HL-60(TB) leukemia
[44] = system: 786-0 renal
[45] = system: MALME-3M melanoma
[46] = system: XF 498 CNS
[47] = system: IGROV1 ovarian
[48] = system: ACHN renal
[49] = system: KM20L2 colon
[50] = system: UACC-257 melanoma
[51] = system: CCRF-CEM leukemia
[52] = system: SW-620 colon
[53] = system: SF-268 CNS
[54] = system: HCT-15 colon
[55] = system: SNB-78 CNS
[56] = system: CAKI-1 renal
[57] = system: MDA-MB-231 breast
[58] = system: HS 578T breast
[59] = system: BT-549 breast
[60] = system: PC-3 prostate
[61] = system: DU-145 prostate
[62] = system: A498 renal
[63] = system: T-47D breast
[64] = system: HOP-62 NSCLC

## O=C1C(=Cc2cccs2)C(=O)N(CCc2ccccc2)S(=O)(=O)N1CCc1ccccc1
[1]
  TGI: > 50 µM
[2]
  TGI: > 50 µM
[3]
  TGI: > 50 µM
[4]
  TGI: > 50 µM
[5]
  TGI: > 50 µM
[6]
  TGI: > 50 µM
[7]
  TGI: > 50 µM
[8]
  TGI: > 50 µM
[9]
  TGI: > 50 µM
[10]
  TGI: > 50 µM
[11]
  TGI: > 50 µM
[12]
  TGI: > 50 µM
[13]
  TGI: > 50 µM
[14]
  TGI: > 50 µM
[15]
  TGI: > 50 µM
[16]
  TGI: > 50 µM
[17]
  TGI: > 50 µM
[18]
  TGI: > 50 µM
[19]
  TGI: > 50 µM
[20]
  TGI: > 50 µM
[21]
  TGI: > 50 µM
[22]
  TGI: > 50 µM
[23]
  TGI: > 50 µM
[24]
  TGI: > 50 µM
[25]
  TGI: > 50 µM
[26]
  TGI: > 50 µM
[27]
  TGI: > 50 µM
[28]
  TGI: > 50 µM
[29]
  TGI: > 50 µM
[30]
  TGI: > 50 µM
[31]
  TGI: > 50 µM
[32]
  TGI: > 50 µM
[33]
  TGI: > 50 µM
[34]
  TGI: > 50 µM
[35]
  TGI: > 50 µM
[36]
  TGI: 22.2 µM
[37]
  TGI: > 50 µM
[38]
  TGI: > 50 µM
[39]
  TGI: 30.4 µM
[40]
  TGI: > 50 µM
[41]
  TGI: 35.2 µM
[42]
  TGI: > 50 µM
[43]
  TGI: 38.4 µM
[44]
  TGI: > 50 µM
[45]
  TGI: > 50 µM
[46]
  TGI: > 50 µM
[47]
  TGI: 16.5 µM
[48]
  TGI: > 50 µM
[49]
  TGI: > 50 µM
[50]
  TGI: > 50 µM
[51]
  TGI: > 50 µM
[52]
  TGI: > 50 µM
[53]
  TGI: > 50 µM
[54]
  TGI: > 50 µM
[55]
  TGI: > 50 µM

## CC[C@@]1(O)C(=O)OCc2c1cc1n(c2=O)Cc2c-1nc1ccccc1c2Cl
[1]
  TGI: 3.43 µM
[2]
  TGI: 4.84 µM
[3]
  TGI: 3.76 µM
[4]
  TGI: 0.259 µM
[5]
  TGI: 2.13 µM
[6]
  TGI: 2.07 µM
[7]
  TGI: 0.022 µM
[56]
  TGI: 1.99 µM
[8]
  TGI: 0.101 µM
[57]
  TGI: > 80.3 µM
[9]
  TGI: 1.83 µM
[10]
  TGI: 34.7 µM
[11]
  TGI: 15.5 µM
[12]
  TGI: 18.3 µM
[13]
  TGI: 4.29 µM
[14]
  TGI: 0.387 µM
[15]
  TGI: 0.022 µM
[16]
  TGI: 3.65 µM
[17]
  TGI: 63.9 µM
[18]
  TGI: 63.4 µM
[19]
  TGI: 0.186 µM
[20]
  TGI: > 100 µM
[21]
  TGI: 80.8 µM
[22]
  TGI: 1.42 µM
[23]
  TGI: 0.107 µM
[24]
  TGI: 0.318 µM
[25]
  TGI: 0.511 µM
[26]
  TGI: 9.58 µM
[27]
  TGI: 0.113 µM
[58]
  TGI: 43.3 µM
[59]
  TGI: 4.89 µM
[28]
  TGI: 0.116 µM
[60]
  TGI: > 100 µM
[29]
  TGI: 5.62 µM
[30]
  TGI: 33.6 µM
[31]
  TGI: 0.578 µM
[32]
  TGI: 0.683 µM
[33]
  TGI: 0.109 µM
[34]
  TGI: 4.61 µM
[35]
  TGI: 27.4 µM
[36]
  TGI: 2.06 µM
[37]
  TGI: 1.28 µM
[38]
  TGI: 0.134 µM
[61]
  TGI: 0.104 µM
[39]
  TGI: 1.11 µM
[40]
  TGI: 0.028 µM
[41]
  TGI: 0.445 µM
[42]
  TGI: 7.72 µM
[43]
  TGI: 0.132 µM
[44]
  TGI: 0.126 µM
[45]
  TGI: 12.6 µM
[46]
  TGI: 2.15 µM
[47]
  TGI: 16 µM
[48]
  TGI: 0.0684 µM
[62]
  TGI: 0.352 µM
[49]
  TGI: 28.7 µM
[63]
  TGI: 0.349 µM
[64]
  TGI: 0.0206 µM
[50]
  TGI: 7.01 µM
[51]
  TGI: 0.172 µM
[52]
  TGI: 39.7 µM
[53]
  TGI: 12.6 µM
[54]
  TGI: 39.5 µM
[55]
  TGI: 87.5 µM

## O=C(/C=C/c1ccc(Br)cc1)c1ccc(NCc2nc3ccccc3[nH]2)cc1
[1]
  TGI: > 100 µM
[2]
  TGI: > 100 µM
[3]
  TGI: > 54.7 µM
[4]
  TGI: 20.6 µM
[5]
  TGI: > 52.6 µM
[6]
  TGI: 28.3 µM
[7]
  TGI: 24.3 µM
[56]
  TGI: > 57.4 µM
[8]
  TGI: > 42.2 µM
[9]
  TGI: > 100 µM
[10]
  TGI: > 46.2 µM
[11]
  TGI: > 53.5 µM
[12]
  TGI: > 100 µM
[13]
  TGI: > 69.3 µM
[14]
  TGI: 6.91 µM
[15]
  TGI: 54.3 µM
[16]
  TGI: > 100 µM
[17]
  TGI: > 100 µM
[18]
  TGI: > 67.4 µM
[19]
  TGI: 84.6 µM
[20]
  TGI: > 37.3 µM
[21]
  TGI: > 55.3 µM
[23]
  TGI: > 76.2 µM
[24]
  TGI: > 100 µM
[25]
  TGI: > 46.3 µM
[26]
  TGI: 88.5 µM
[27]
  TGI: 39.9 µM
[28]
  TGI: 24.4 µM
[29]
  TGI: 27.4 µM
[30]
  TGI: > 100 µM
[31]
  TGI: > 54.6 µM
[32]
  TGI: 66.5 µM
[33]
  TGI: 31.2 µM
[34]
  TGI: > 62.6 µM
[35]
  TGI: 13 µM
[36]
  TGI: > 37.5 µM
[37]
  TGI: 19.4 µM
[38]
  TGI: > 46.8 µM
[39]
  TGI: > 49.1 µM
[40]
  TGI: > 42.5 µM
[41]
  TGI: > 36.8 µM
[42]
  TGI: > 82.1 µM
[43]
  TGI: > 22.9 µM
[44]
  TGI: > 56.2 µM
[45]
  TGI: > 100 µM
[46]
  TGI: 49.3 µM
[47]
  TGI: > 76.3 µM
[48]
  TGI: 81.2 µM
[62]
  TGI: > 87.1 µM
[49]
  TGI: > 100 µM
[64]
  TGI: > 61.2 µM
[50]
  TGI: > 63.4 µM
[51]
  TGI: > 40.1 µM
[52]
  TGI: 21.2 µM
[53]
  TGI: 33 µM
[54]
  TGI: 17.3 µM
[55]
  TGI: 16.6 µM

## COC(=O)C1=C(C)C(=O)[C@H]2C(C(=O)OC)CCCC[C@@H]12 (some centres not stated)
[1]
  TGI: > 100 µM
[3]
  TGI: > 100 µM
[4]
  TGI: > 100 µM
[5]
  TGI: > 100 µM
[6]
  TGI: > 100 µM
[7]
  TGI: > 100 µM
[56]
  TGI: > 100 µM
[8]
  TGI: > 100 µM
[9]
  TGI: > 100 µM
[10]
  TGI: > 100 µM
[11]
  TGI: > 100 µM
[12]
  TGI: > 100 µM
[13]
  TGI: > 100 µM
[15]
  TGI: > 100 µM
[16]
  TGI: > 100 µM
[17]
  TGI: > 100 µM
[18]
  TGI: > 100 µM
[19]
  TGI: > 100 µM
[20]
  TGI: > 100 µM
[21]
  TGI: > 100 µM
[22]
  TGI: > 100 µM
[23]
  TGI: > 100 µM
[24]
  TGI: > 100 µM
[25]
  TGI: > 100 µM
[26]
  TGI: > 100 µM
[27]
  TGI: > 100 µM
[28]
  TGI: > 100 µM
[29]
  TGI: > 100 µM
[30]
  TGI: > 100 µM
[31]
  TGI: > 100 µM
[32]
  TGI: > 100 µM
[33]
  TGI: > 100 µM
[34]
  TGI: > 100 µM
[35]
  TGI: > 100 µM
[36]
  TGI: 99 µM
[37]
  TGI: > 100 µM
[38]
  TGI: > 100 µM
[39]
  TGI: > 100 µM
[40]
  TGI: > 100 µM
[41]
  TGI: > 100 µM
[42]
  TGI: > 100 µM
[43]
  TGI: > 100 µM
[44]
  TGI: > 100 µM
[45]
  TGI: > 100 µM
[46]
  TGI: > 100 µM
[47]
  TGI: > 100 µM
[48]
  TGI: > 100 µM
[62]
  TGI: > 100 µM
[49]
  TGI: > 100 µM
[64]
  TGI: > 100 µM
[50]
  TGI: > 100 µM
[51]
  TGI: > 100 µM
[52]
  TGI: > 100 µM
[53]
  TGI: > 100 µM
[54]
  TGI: > 100 µM
[55]
  TGI: > 100 µM
